This note sets out measurements from ChEMBL document CHEMBL3232739, “Discovery of a potent and dissociated non-steroidal glucocorticoid receptor agonist containing an alkyl carbinol pharmacophore” (Bioorg Med Chem Lett, 2014).

Some results are limits rather than exact numbers.

The target of data set [1] is T1, Mineralocorticoid receptor (Homo sapiens, UniProt P08235).
T1 sequence (P08235 whole entry): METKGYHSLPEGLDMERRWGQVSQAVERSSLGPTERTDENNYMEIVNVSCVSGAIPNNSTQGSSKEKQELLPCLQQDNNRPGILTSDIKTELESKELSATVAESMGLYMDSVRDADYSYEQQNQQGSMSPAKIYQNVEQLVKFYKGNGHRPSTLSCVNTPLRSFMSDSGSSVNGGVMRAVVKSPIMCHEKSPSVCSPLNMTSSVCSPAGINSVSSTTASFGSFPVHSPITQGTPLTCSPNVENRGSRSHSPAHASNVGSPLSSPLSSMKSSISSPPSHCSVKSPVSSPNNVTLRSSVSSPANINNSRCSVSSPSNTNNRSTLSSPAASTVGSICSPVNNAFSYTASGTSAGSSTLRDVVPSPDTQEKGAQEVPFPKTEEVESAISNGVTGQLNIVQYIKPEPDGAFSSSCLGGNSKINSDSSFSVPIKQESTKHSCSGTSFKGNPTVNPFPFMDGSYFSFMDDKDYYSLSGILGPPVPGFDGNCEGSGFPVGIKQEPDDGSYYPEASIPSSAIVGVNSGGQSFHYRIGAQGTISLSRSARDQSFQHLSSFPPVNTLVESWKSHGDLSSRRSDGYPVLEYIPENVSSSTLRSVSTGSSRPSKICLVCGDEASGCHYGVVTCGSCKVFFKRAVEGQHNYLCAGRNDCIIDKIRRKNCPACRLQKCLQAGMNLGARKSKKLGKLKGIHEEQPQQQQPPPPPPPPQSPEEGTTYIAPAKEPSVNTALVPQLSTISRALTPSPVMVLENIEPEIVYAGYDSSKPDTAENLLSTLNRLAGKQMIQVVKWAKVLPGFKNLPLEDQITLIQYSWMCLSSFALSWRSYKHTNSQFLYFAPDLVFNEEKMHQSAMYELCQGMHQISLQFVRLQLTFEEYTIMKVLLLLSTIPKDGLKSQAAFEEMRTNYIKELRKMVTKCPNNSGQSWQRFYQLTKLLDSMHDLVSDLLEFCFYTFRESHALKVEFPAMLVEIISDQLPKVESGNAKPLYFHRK
As to the kind of experiment: Displacement of TAMRA-labeled dexamethasone from mineralocorticoid receptor (unknown origin) by fluorescence polarization assay. In general terms: Fluorescence polarisation rises when a labelled molecule tumbles more slowly, as on binding a larger partner.

The target of data set [2] is T2, Glucocorticoid receptor (Homo sapiens, UniProt P04150).
T2 sequence (P04150 whole entry): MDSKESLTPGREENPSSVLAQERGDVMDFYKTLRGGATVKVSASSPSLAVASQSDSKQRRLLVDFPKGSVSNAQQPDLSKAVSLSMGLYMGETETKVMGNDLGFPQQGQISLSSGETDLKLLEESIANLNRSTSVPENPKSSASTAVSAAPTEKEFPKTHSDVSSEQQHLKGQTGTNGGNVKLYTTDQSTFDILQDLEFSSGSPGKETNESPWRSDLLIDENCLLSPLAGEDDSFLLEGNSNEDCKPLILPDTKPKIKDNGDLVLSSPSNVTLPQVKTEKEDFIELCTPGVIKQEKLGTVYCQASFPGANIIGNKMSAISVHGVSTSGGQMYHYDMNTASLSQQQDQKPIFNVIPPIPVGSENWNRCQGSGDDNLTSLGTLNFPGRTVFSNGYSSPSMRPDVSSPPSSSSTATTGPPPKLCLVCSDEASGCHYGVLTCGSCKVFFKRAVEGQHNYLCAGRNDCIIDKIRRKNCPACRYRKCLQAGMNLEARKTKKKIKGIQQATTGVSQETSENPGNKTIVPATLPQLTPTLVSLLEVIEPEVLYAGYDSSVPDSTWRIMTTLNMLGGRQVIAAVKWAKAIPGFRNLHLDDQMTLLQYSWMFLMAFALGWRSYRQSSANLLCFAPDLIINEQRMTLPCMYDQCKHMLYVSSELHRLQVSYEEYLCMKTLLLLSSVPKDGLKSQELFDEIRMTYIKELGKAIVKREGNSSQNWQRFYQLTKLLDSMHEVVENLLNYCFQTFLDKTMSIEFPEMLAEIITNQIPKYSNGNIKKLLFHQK

For data set [3], the species on record is Homo sapiens. The data set can be described thus: Selectivity ratio of IC50 for mineralocorticoid receptor (unknown origin) to IC50 for glucocorticoid receptor (unknown origin).
In data set [4] the target is T2, Glucocorticoid receptor. The source holds these as a separate data set.
Description: Agonist activity at glucocorticoid receptor in human foreskin fibroblasts assessed as inhibition of IL-1-induced IL-6 production by trans-repression assay
For another data set, the target named is T3, Progesterone receptor (Homo sapiens, UniProt P06401).
T3 sequence (P06401 whole entry): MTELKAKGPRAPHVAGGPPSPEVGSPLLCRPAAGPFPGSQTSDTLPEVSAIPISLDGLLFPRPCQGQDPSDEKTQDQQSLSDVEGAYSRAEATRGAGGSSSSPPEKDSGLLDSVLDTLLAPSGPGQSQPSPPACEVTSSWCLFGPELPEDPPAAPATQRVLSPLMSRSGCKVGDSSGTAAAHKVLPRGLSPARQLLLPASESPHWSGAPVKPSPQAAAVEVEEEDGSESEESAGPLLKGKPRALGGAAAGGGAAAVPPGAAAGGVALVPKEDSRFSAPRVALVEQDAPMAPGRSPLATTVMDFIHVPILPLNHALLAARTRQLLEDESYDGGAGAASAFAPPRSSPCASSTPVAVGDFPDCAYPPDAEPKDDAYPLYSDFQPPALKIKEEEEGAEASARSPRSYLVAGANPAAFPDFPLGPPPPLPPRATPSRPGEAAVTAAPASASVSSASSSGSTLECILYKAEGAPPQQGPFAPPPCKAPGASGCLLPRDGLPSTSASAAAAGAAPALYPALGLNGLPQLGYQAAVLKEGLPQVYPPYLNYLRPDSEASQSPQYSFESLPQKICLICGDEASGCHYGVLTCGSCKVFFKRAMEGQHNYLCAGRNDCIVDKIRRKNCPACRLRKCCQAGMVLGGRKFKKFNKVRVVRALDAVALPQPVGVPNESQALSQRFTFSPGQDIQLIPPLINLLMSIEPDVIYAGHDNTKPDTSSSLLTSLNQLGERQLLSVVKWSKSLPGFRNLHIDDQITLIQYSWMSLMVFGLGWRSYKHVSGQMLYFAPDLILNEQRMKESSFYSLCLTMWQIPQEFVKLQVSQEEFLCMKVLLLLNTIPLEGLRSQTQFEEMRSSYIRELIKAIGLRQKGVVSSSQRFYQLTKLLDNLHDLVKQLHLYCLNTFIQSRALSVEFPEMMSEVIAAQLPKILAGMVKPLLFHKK
As to the kind of experiment: Displacement of TAMRA-labeled mifepristone from progesterone receptor (unknown origin) by fluorescence polarization assay.

For data set [5], the species on record is Homo sapiens. The data set can be described thus: Selectivity ratio of IC50 for progesterone receptor (unknown origin) to IC50 for glucocorticoid receptor (unknown origin).
The target of data set [6] is T2, Glucocorticoid receptor. This is another data set of the same source.
Description: Transactivation of glucocorticoid receptor in human HeLa cells harboring MMTV promoter by luciferase reporter gene assay
The target of data set [7] is T2, Glucocorticoid receptor. The data set can be described thus: Transactivation of glucocorticoid receptor in human HeLa cells harboring MMTV promoter at 2 uM by luciferase reporter gene assay relative to dexamethasone. The data set is classed as cell-based. To be noted: read-out: Efficacy. For orientation: Reporter assays use an easily measured gene product as a stand-in for the process of interest.

The nature of data set [8]: Chemical stability of the compound in aqueous solution at pH 2. It is filed as physicochemical. The settings on record: buffer.
Data set [9] in a line: Chemical stability of the compound in aqueous solution at pH 2 to 7.4 after 24 hrs. It is filed as physicochemical. The settings on record: buffer, pH 2, 24 h.

Broadly, the IC50 is the concentration that inhibits the measured activity by half. Read a high IC50 as a need for much substance. On to `COc1ccc(F)cc1C(C)(C)CC(O)(Cc1cc2ccncc2[nH]1)C1CC1` (stereo not drawn), for which the IC50 in data set [1] is more than 2000 nM; against Glucocorticoid receptor [2], 15 nM; at Glucocorticoid receptor [4], 47 nM; at Progesterone receptor, more than 2000 nM. Besides, the Ratio IC50 in the data set filed under Homo sapiens [3] and in the data set listed under Homo sapiens [5] was more than 100 throughout.
With `COc1ccc(F)cc1C(C)(C)CC(O)(Cc1cc2ccncc2[nH]1)C(C)(C)C` (stereo not drawn), the IC50 in [1] was found to be 1800 nM; at Glucocorticoid receptor [2], 8 nM; at Glucocorticoid receptor [4] it was 36 nM; on Progesterone receptor, 1800 nM. Moreover, the Ratio IC50 in the data set filed under Homo sapiens [3] and in the data set listed under Homo sapiens [5] was more than 100 throughout.
`CCC(O)(Cc1cc2ccncc2[nH]1)CC(C)(C)c1cc(F)ccc1OC` (stereo not drawn): the IC50 in data set [1] is more than 2000 nM; against Glucocorticoid receptor [2], 51 nM; on Glucocorticoid receptor [4], 220 nM; at Progesterone receptor it was more than 2000 nM.
One may read the EC50 as the concentration needed to bring the measured effect to its halfway point. A lower EC50 goes with greater potency. For the compound `COc1ccc(F)cc1C(C)(C)CC(O)(Cc1cc2cnccc2[nH]1)C(C)(C)C` (stereo not drawn), the EC50 on Glucocorticoid receptor [6] was more than 2000 nM. Further, the half-inhibitory concentration (IC50) in data set [1] worked out at 640 nM; on Glucocorticoid receptor [2], 4 nM; at Glucocorticoid receptor [4], 9 nM; on Progesterone receptor, 790 nM. The Emax at 2 µM at Glucocorticoid receptor [7] worked out at 10%.
`Cc1ccc(F)cc1C(C)(C)CC(O)(Cc1cc2cnccc2[nH]1)C1CC1` (stereo not drawn) gave an EC50 on Glucocorticoid receptor [6] of more than 2000 nM. In addition, the IC50 in data set [1] was 1550 nM; at Glucocorticoid receptor [2], 9 nM; against Glucocorticoid receptor [4], 24 nM; on Progesterone receptor it was more than 2000 nM. Besides, in data set [8], the Stability entry is given as “Unstable”. The Emax at 2 µM on Glucocorticoid receptor [7] came out at 11%.
`COc1ccc(F)cc1C(C)(C)CC(O)(Cc1cc2cnccc2[nH]1)C1CC1` (stereo not drawn): the response at Glucocorticoid receptor [6] was half-maximal at 90 nM (EC50). Also, the IC50 in data set [1] was 1800 nM; on Glucocorticoid receptor [2], 6 nM; against Glucocorticoid receptor [4], 8 nM; at Progesterone receptor, more than 2000 nM. At Glucocorticoid receptor [7], the Emax at 2 µM was found to be 20%.
On to `COc1ccc(F)cc1C(C)(C)CC(O)(Cc1cc2ccncc2[nH]1)C1CCC1` (stereo not drawn), for which the IC50 in data set [1] was more than 2000 nM; against Glucocorticoid receptor [2], 17 nM; against Glucocorticoid receptor [4], 260 nM; on Progesterone receptor, more than 2000 nM.
Regarding `Cc1ccc(F)cc1C(C)(C)C[C@](O)(Cc1cc2cnccc2[nH]1)C(C)(C)C`, the results for the IC50 (in data set [1]; on Glucocorticoid receptor [2]; on Progesterone receptor) were 1300 nM, 1300 nM and more than 2000 nM, respectively.
Turning to `COc1ccc(F)cc1C(C)(C)CC(O)(Cc1cc2ccncc2[nH]1)C(F)(F)F` (stereo not drawn), the results for the IC50 at Glucocorticoid receptor [2], against Glucocorticoid receptor [4] and on Progesterone receptor were 4 nM, 10 nM and more than 2000 nM, respectively.
Consider `COc1ccc(F)cc1C(C)(C)CC(O)(Cc1cc2ccncc2[nH]1)C(C)C` (stereo not drawn), for which the IC50 was 1000 nM in data set [1], 9 nM at Glucocorticoid receptor [2], 73 nM on Glucocorticoid receptor [4] and more than 2000 nM at Progesterone receptor. The Ratio IC50 in the data set listed under Homo sapiens [3] and in the data set filed under Homo sapiens [5] was more than 100 throughout.
For the compound `COc1ccc(F)cc1C(C)(C)CC(C)(O)Cc1cc2ccncc2[nH]1` (stereo not drawn), the 50% inhibitory concentration (IC50) in [1] was more than 2000 nM; at Glucocorticoid receptor [2] it was 230 nM; on Glucocorticoid receptor [4], more than 2000 nM; at Progesterone receptor, more than 2000 nM.
Take `CCC(C)(C)C(O)(Cc1cc2ccncc2[nH]1)CC(C)(C)c1cc(F)ccc1OC` (stereo not drawn): the IC50 in [1] was 1900 nM; against Glucocorticoid receptor [2], 13 nM; on Glucocorticoid receptor [4], more than 2000 nM; on Progesterone receptor, more than 2000 nM. Besides, the Ratio IC50 in the data set filed under Homo sapiens [3] and in the data set filed under Homo sapiens [5] was more than 100 each time.
On to `Cc1ccc(F)cc1C(C)(C)CC(O)(Cc1cc2cnccc2[nH]1)C(C)(C)C` (racemic), for which the Stability entry in data set [9] and in data set [8] was “Stable” each time. At Glucocorticoid receptor [6], this compound came in with an EC50 of more than 2000 nM. Moreover, the IC50 in data set [1] came to 720 nM; against Glucocorticoid receptor [2] it was 5 nM; at Glucocorticoid receptor [4], 35 nM; at Progesterone receptor, 780 nM. In addition, the Emax at 2 µM on Glucocorticoid receptor [7] came to 1%.
For the compound `COc1ccc(F)cc1C(C)(C)CC(O)(Cc1cc2ccncc2[nH]1)C1CCCC1` (single isomer, unassigned), the half-inhibitory concentration (IC50) was 1100 nM in [1], 26 nM against Glucocorticoid receptor [2], more than 2000 nM on Glucocorticoid receptor [4] and more than 2000 nM on Progesterone receptor.
